Assay results published in US11555072B2, “A33 antibody compositions and methods of using the same in radioimmunotherapy” (MEMORIAL SLOAN KETTERING CANCER CENTER, priority 2017, dated 2023).

Experiments:
[1] = SEC-HPLC stability test (37° C. incubation, freeze-thaw); format: physicochemical
Procedure: SEC-HPLC analysis. Size and purity of huA33-BsAb was analyzed using HPLC system (Shimadzu Scientific Instruments Inc., Columbia, Md.). Monomeric species were identified using a molecular weight standard (Bio-Rad Laboratories, Hercules, Calif.) and percent monomer was calculated based on the relative area under curve (AUC) of different non-buffer peaks.
The huA33 antibody was reformatted into bispecific format by fusing scFv of humanized OKT3 to the C-terminus of light chain via a flexible GS linker (FIG. 1(A)). The DNA construct was used to establish a CHO-S stable cell line and huA33-BsAb was purified from the supernatant. Protein yield using protein A chromatography was 50 mg/L to 100 mg/L without extensive optimization. Similar yields were observed using EXPI293™ transient expression system (data not shown). One-step protein A purification routinely produced protein with purity above 90%, as measured by SEC-HPLC.

CD3 on T cell surface = molecular target: T1, CD3 on T cell surface (Homo sapiens, UniProt P07766); test: FACS staining of activated T cells; format: cell-based
T1 construct: endogenous in cells
T1 sequence (P07766 23-207): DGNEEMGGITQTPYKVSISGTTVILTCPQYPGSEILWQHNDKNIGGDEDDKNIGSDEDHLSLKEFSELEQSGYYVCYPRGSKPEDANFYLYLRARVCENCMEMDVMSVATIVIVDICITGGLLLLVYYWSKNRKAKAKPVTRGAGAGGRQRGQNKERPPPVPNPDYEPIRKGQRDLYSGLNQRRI
T1 sequence (P09693 23-182 partner): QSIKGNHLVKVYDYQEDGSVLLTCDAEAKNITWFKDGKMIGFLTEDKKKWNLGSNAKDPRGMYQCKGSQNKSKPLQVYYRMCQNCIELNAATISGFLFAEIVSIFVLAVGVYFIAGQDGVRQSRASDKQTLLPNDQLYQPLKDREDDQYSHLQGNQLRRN
T1 sequence (P04234 22-171 partner): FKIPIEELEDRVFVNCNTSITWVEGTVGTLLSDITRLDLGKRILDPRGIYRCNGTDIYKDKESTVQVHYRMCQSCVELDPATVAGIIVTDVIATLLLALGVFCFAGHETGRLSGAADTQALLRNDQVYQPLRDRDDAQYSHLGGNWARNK
T1 sequence (P20963 22-164 partner): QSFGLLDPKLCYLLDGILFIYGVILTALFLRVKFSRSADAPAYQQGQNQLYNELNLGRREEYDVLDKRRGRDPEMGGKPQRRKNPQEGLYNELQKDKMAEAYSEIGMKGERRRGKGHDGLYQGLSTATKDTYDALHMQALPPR
Text: Antibodies and flow cytometry. Antibodies anti-hCD25-PE, anti-CD69-PE, anti-hCD8-APC, anti-hCD45-PECy7, anti-hCD4-PE, anti-hCD4-BV421, anti-hCD62L-PercpCy5.5, anti-hPD1-BV421, anti-hCD45RO-PECy7, were purchased from BIOLEGEND® (San Diego, Calif.). Goat anti-human IgG-PE was purchased from SouthernBiotech (Birmingham, Ala.). Streptavidin-PE, anti-hCD4-APC and anti-hCD25-APC were purchased from BD Biosciences (San Jose, Calif.). All FACS analysis was done using FACSCalibur or LSRII system (BD Biosciences, San Jose, Calif.) and analyzed using FlowJo (FLOWJO, Ashland, Oreg.).
The avidities of huA33-BsAb towards GPA33 at both 25° C. and 37° C. were measured using GPA33 immobilized CM5 chips.

SNU16 tumors = test: s.c. SNU16 gastric cancer xenograft with PBMCs; format: in vivo, mice; settings: s.c. SNU16 mixed with human PBMCs
Procedure: In vivo tumor therapy. For subcutaneous (s.c.) tumor models, LS174T, Colo205 or SNU16 cells were combined with fresh PBMCs at a 1:1 ratio, mixed with […]® (volume of cell:gel=1:2), and implanted (100 μl/mouse) at the flank of Balb/c Rag2^−/−IL2Rγ^−/− (DKO) mice (now commercially available from Taconic as CIEA BRG mice). Treatment started after confirmation of tumor presence with a BIW schedule at 100 μg/mouse and continued for 3-4 weeks. Tumor growth was monitored by weekly measurement of tumor volume using a caliper or a digital device Peira TM900 Scanner (Peira Scientific Instruments, Turnhout, Belgium).
HuA33-BsAb inhibited growth of gastric cancers in a s.c. xenograft model. GPA33 is expressed in a subset of gastric cancer cells. […] Unlike NSG mice, DKO mice were more resistant to engraftment of human PBMCs.

LS174T tumor = test: i.p. LS174T-luc tumor model with i.v. activated T cells; format: in vivo, mice
Procedure: For intraperitoneal (i.p.) tumor models, luciferase expressing LS174T-luc or SW1222-luc cells were resuspended in RPMI medium and injected intraperitoneally into DKO mice. Human effector cells were supplied as activated T cells and injected intravenously. Mice were treated with 2-3 weekly cycles of antibody-T cell-antibody regimen, with each component separated by 3-4 days. Growth of tumors was followed weekly by measuring luminescence signals on an IVIS Spectrum in vivo imaging system ([…]® Inc., Waltham, Mass.) after injection of 3.3 mg/mouse of luciferin. Luminescence was analyzed and quantified using Living Image Software ([…]®-Inc., Waltham, Mass.).
To simulate malignant ascites, a common occurrence in colon cancers, luciferase-expressing LS174T cells were planted intraperitoneally into DKO mice. When tumor growth was confirmed by luminescence, mice were randomized into different treatment groups, treated with no antibody group (tumor only), tumor+T cell only group (tumor+ATC), or i.v. huA33-BsAb (7 doses over 3 weeks), plus weekly T cell injections over 3 weeks. Treatment was started on day 5 after tumor implantation. All T cells were injected through retro-orbital route.

T cells [2] = test: T cell activation and proliferation assay (CFSE-labeled PBMCs plus tumor cells); format: cell-based, human
Procedure: T cell proliferation assay. Fresh PBMCs from healthy donors were labeled with […] CFSE (Life Technologies Corp., Carlsbad, Calif.) for 5 min at room temperature, followed by neutralization using PBS containing 5% FBS. Target cells were then incubated with labeled PBMCs under different conditions at 37° C. before analyzing the expression of surface activation markers and T cell proliferation at 24 hours and 96 hours.
HuA33-BsAb activated and induced cell cycle entry of fresh T cells.

T cells [3] = test: In vivo T cell proliferation assay; settings: CFSE-labeled PBMCs + Colo205 s.c. in DKO mice, antibody i.v. next day, tumors analyzed 4 days later
Procedure: To determine if T cells can be activated in vivo, an in vivo proliferation assay was conducted by mixing CFSE-labeled PBMCs with Colo205 cells and the mixture was implanted subcutaneously onto DKO mice. huA33-BsAb was injected intravenously the next day and the tumors were isolated after another 4 days and analyzed by FACS.

T cells [4] = test: Cytokines and cytolytic molecules release assay; format: cell-based, human; settings: T cells + Colo205, E:T 5:1, over 4 days
Procedure: Cytokines and cytolytic molecules release assay. T cells were purified from PBMCs using pan T cell isolation kit (Miltenyi Biotec, Cambridge, Mass.). Target and control tumor cells were incubated with 2×10^6 cells/well at an effector to target ratio of 5:1 in 24-well plates in triplicates, with 2 ml total volume per well. Culture supernatants were collected at 24 hours, 48 hours, 72 hours and 96 hours and cytokine levels were measured with flow cytometry using LEGENDplex™ human CD8/NK Panel (BIOLEGEND®, San Diego, Calif.) according to the manufacturer's protocol.
HuA33-BsAb induced secretion of inflammatory cytokines and cytolytic molecules. The secreted cytokine profile of T cells activated by huA33-BsAb in the presence of target tumors was examined. Total T cells were purified from PBMCs and cultured in the presence of Colo205 tumor cells at an effector to target ratio of 5:1. To estimate nonspecific activation, SKMEL5 cells were used as a negative control. Cell culture supernatants were collected daily over 4 days and the levels of cytokines and cytotoxic molecules were measured using a flow cytometry based multiplex method. […] Similarly, a significant amount of IL-6 was secreted by activated T cells. Th17 cytokine IL-17a was also secreted at high levels.

In the case of “huA33-BsAb: huA33 IgG with humanized OKT3 scFv fused to light chain C-terminus, N297A and K322A; SEQ ID NO: 19 and 21”, the “percentage of monomers after incubation” value ([1]; 37° C. for 4 weeks, SEC-HPLC) is reported as “only a minimal decrease in the percentage of monomers”, the “SEC-HPLC profile after freeze-thaw” value ([1]; four cycles of freeze-thaw) is reported as “did not cause noticeable changes in SEC-HPLC profile” and the “staining of activated T cells” value (CD3 on T cell surface) is reported as “bound to CD3 on T cell surface”. The survival (SNU16 tumors) was “significantly prolonged survival”, the tumor response (SNU16 tumors) was “effectively cured the mice harboring s.c. tumors” and the “tumor growth in the abdomen” value (LS174T tumor; i.v., 7 doses over 3 weeks, weekly T cells) was “significantly suppressed metastatic growth of LS174T tumor”. For the same substance, the “time all mice remained alive” value (LS174T tumor; without further treatment) was “at least 60 days”, the “PD-1 upregulation on T cells” value (T cells [2]; PBMCs + Colo205, 24 and 96 hours) was “PD-1 upregulation was observed after 24 hours and persisted until 96 hours” and the “T cell division by CFSE dye dilution” value (T cells [2]; PBMCs + Colo205, 96 hours) was “observed in both CD4(+) and CD8(+) T cells after 96 hours”. The “T cell activation (upregulation of CD25 and CD69 markers)” value (T cells [2]; PBMCs + Colo205, E:T 5, 1 μg/ml, 24 hours) was “caused activation of both CD4(+) and CD8(+) T cells”, the “T cell activation with GPA33(−) target cells” value (T cells [2]; SKMEL5 target cells, 96 hours) was “did not activate T cells” and the “CD4(+) and CD8(+) T cells that upregulated CD25 expression while undergoing cell division” value (T cells [3]) was “around 25%”. The “release of cytotoxic components (sFasL, sFas, Granzyme A, Granzyme B, Perforin, Granulysin)” value (T cells [4]) was “all released in the supernatant” and the “secretion of cytokines by activated T cells” value (T cells [4]) was “both Th1 cytokines (IL-2, IFNγ, TNFα) and Th2 cytokines (IL-4, IL-10) were secreted by activated T cells”.
